Reference: US12103936B2, “Crystal form of hepatitis B surface antigen inhibitor” (FUJIAN AKEYLINK BIOTECHNOLOGY CO., LTD., priority 2018, dated 2024)

Columns and labels:
HBV-DNA [1] = assay: HBV in vitro test in HepG2.2.15 cells, HBV-DNA by quantitative PCR; assay type: cell-based; details: Hepatitis B virus, 192 h, culture medium collected on day 8, read-out: EC50 against HBV-DNA
Method: (§1) 1. Cell Line: HepG2.2.15 Cells
(§2) • Pancreatin (Invitrogen-25300062) • DPBS (Corning-21031CVR) • DMSO (Sigma-D2650-100 mL) • High-throughput DNA purification kit (QIAamp 96 DNA Blood Kit, Qiagen-51162) • Quantitative quick start universal probe reagent (FastStart Universal Probe Master, Roche-04914058001) • Hepatitis B surface antigen quantitative test kit (Autobio, CL0310) 3. Consumables and Instruments: • 96-well cell culture plate (Cornin-3599) • CO2 incubator (HERA-CELL-240) • Optical sealing film (ABI-4311971) • Quantitative PCR 96-well plate (Applied Biosystems-4306737) • Fluorescence quantitative PCR instrument (Applied Biosystems-7500 real time PCR system) Experimental Methods: • 1. HepG2.2.15 cells (4×10^4 cells/well) were seeded to a 96-well plate and cultured overnight at 37° C., 5% CO2. • 2. On the day 2, the compound was diluted to a total of 8 concentrations, with a 3-fold gradient dilution. Different concentrations of compounds were added into the culture wells in duplicate wells. The final concentration of DMSO in the culture medium was 0.5%. 10 μM ETV (Entecavir) was used as a 100% inhibition control; 0.5% DMSO was used as a 0% inhibition control. • 3. […]
(§3) 50 μL of sample and standard were added into a reaction plate respectively, followed by addition of 50 μL of enzyme conjugate into each well. […] Chemoluminescence intensity was determined by an ELISA finally. • 9.

HBsAg [2] = assay: In vivo efficacy study in AAV/HBV mice model, HBsAg content in serum; parameters: species or system C57BL/6 mice; details: PO
Excerpt: C57BL/6 mice, 10% HP-β-CD as vehicle, TDF ([…]) as refer compound, the compound of formula (I), and recombinant virus rAAV8-1.3HBV.
The reagents of the present project mainly included QIAamp96 DNA kit and TaqMan® Universal PCR Master Mix, hepatitis B surface antigen test kit.
The instrument included centrifuge (Beckman Allegra X-15R), tissue grinder (QIAGEN-Tissue lyser II) and spectrophotometer (Thermo-NANODROP 1000).
• a) All mice were administrated orally on the day 28 after being injected with virus, the day of administration was designated as day 0. Before administration, serum was collected by submandibular blood sampling for all mice. The mice were administration once a day for four weeks. The detailed dosage regimen was shown in Table 3. • b) Serum was collected by submandibular blood sampling for all mice twice a week, with each sampling volume being approximately 100 μL. The detailed blood sampling time is shown in Table 3. • c) On the day 28, all mice were euthanized and the blood was collected from the heart for serum collection. • d) All serum samples were sent for analysis.
The anti-HBV activity of the test compound in AAV/HBV mice model was evaluated by determining the content of HBsAg in the serum of the mice.

HBsAg [3] = assay: HBV in vitro test in HepG2.2.15 cells, hepatitis B surface antigen by ELISA; assay type: cell-based; details: Hepatitis B virus, HepG2.2.15, 192 h, read-out: EC50 against HBsAg
Method: as §1, §2, §3

HBV-DNA [4] = details: woodchuck model, single drug; cited from earlier work
surface antigens = details: woodchuck model, single drug; cited from earlier work
[5] = 10 mg/kg, detection date day 11
[6] = 10 mg/kg, detection date day 14
[7] = 10 mg/kg, detection date day 18
[8] = 10 mg/kg, detection date day 21
[9] = 10 mg/kg, detection date day 25
[10] = 10 mg/kg, detection date day 28
[11] = 10 mg/kg, detection date day -1

COCCCOc1cc2c(cc1OC)-c1cc(=O)c(C(=O)O)cn1[C@H](C(C)(C)C)CO2 [the compound of formula (I)]
EC50 (HBV-DNA [1]): 2.55 nM | HBsAg content in mice (HBsAg [2]; 3 mg/kg, detection date day 4): 3.68 IU/mL | HBsAg content in mice (HBsAg [2]; 3 mg/kg, detection date day 7): 3.70 IU/mL | HBsAg content in mice (HBsAg [2]; 3 mg/kg, detection date day 11): 3.76 IU/mL | HBsAg content in mice (HBsAg [2]; 3 mg/kg, detection date day 14): 3.70 IU/mL | HBsAg content in mice (HBsAg [2]; 3 mg/kg, detection date day 18): 3.85 IU/mL | HBsAg content in mice (HBsAg [2]; 3 mg/kg, detection date day 21): 3.78 IU/mL | HBsAg content in mice (HBsAg [2]; 3 mg/kg, detection date day 25): 3.76 IU/mL | HBsAg content in mice (HBsAg [2]; 3 mg/kg, detection date day 28): 3.96 IU/mL | HBsAg content in mice (HBsAg [2]; 3 mg/kg, detection date day -1): 4.54 IU/mL | HBsAg content in mice (HBsAg [2]; 10 mg/kg, detection date day 4): 3.56 IU/mL | HBsAg content in mice (HBsAg [2]; 10 mg/kg, detection date day 7): 3.69 IU/mL | HBsAg content in mice (HBsAg [2]; [5]): 3.92 IU/mL | HBsAg content in mice (HBsAg [2]; [6]): 3.61 IU/mL | HBsAg content in mice (HBsAg [2]; [7]): 3.90 IU/mL | HBsAg content in mice (HBsAg [2]; [8]): 3.75 IU/mL | HBsAg content in mice (HBsAg [2]; [9]): 3.83 IU/mL | HBsAg content in mice (HBsAg [2]; [10]): 3.87 IU/mL | HBsAg content in mice (HBsAg [2]; [11]): 4.51 IU/mL | HBsAg content in mice (HBsAg [2]; 30 mg/kg, detection date day 4): 3.38 IU/mL | HBsAg content in mice (HBsAg [2]; 30 mg/kg, detection date day 7): 3.44 IU/mL | HBsAg content in mice (HBsAg [2]; 30 mg/kg, detection date day 11): 3.64 IU/mL | HBsAg content in mice (HBsAg [2]; 30 mg/kg, detection date day 14): 3.40 IU/mL | HBsAg content in mice (HBsAg [2]; 30 mg/kg, detection date day 18): 3.55 IU/mL | HBsAg content in mice (HBsAg [2]; 30 mg/kg, detection date day 21): 3.46 IU/mL | HBsAg content in mice (HBsAg [2]; 30 mg/kg, detection date day 25): 3.37 IU/mL | HBsAg content in mice (HBsAg [2]; 30 mg/kg, detection date day 28): 3.53 IU/mL | HBsAg content in mice (HBsAg [2]; 30 mg/kg, detection date day -1): 4.48 IU/mL | EC50 (HBsAg [3]): 3.88 nM

COCCCOc1cc2c(cc1OC)-c1cc(=O)c(C(=O)O)cn1[C@H](C(C)C)C2 [RG7834, reference compound]
HBsAg content in mice (HBsAg [2]; 10 mg/kg, detection date day 4): 3.54 IU/mL | HBsAg content in mice (HBsAg [2]; 10 mg/kg, detection date day 7): 3.58 IU/mL | HBsAg content in mice (HBsAg [2]; [5]): 3.70 IU/mL | HBsAg content in mice (HBsAg [2]; [6]): 3.49 IU/mL | HBsAg content in mice (HBsAg [2]; [7]): 3.70 IU/mL | HBsAg content in mice (HBsAg [2]; [8]): 3.52 IU/mL | HBsAg content in mice (HBsAg [2]; [9]): 3.50 IU/mL | HBsAg content in mice (HBsAg [2]; [10]): 3.66 IU/mL | HBsAg content in mice (HBsAg [2]; [11]): 4.56 IU/mL | reduction of HBV-DNA (HBV-DNA [4]): 1.7 Log | reduction of surface antigens (surface antigens): 2.57 Log
